Data from patent US20060286132A1, “Use of stellate ganglion block for the treatment of sexual dysfunction” (priority 2005, published 2006).

What was measured:
[1] = tested on: sexual dysfunction, including anorgasmia; experiment: Sexual function after stellate ganglion block in a person with sexual dysfunction including anorgasmia; format: in vivo
[2] = tested on: severe menopausal hot flashes; experiment: Self-reported hot flashes pre and post stellate ganglion block in women with severe menopausal hot flashes; format: in vivo
Description: A stellate ganglion block is illustratively performed by placing the patient in the supine position (on the back) with the neck slightly extended and the jaw open. While the patient is usually conscious for the procedure, a medication such as Versed (midazolam hydrochloride), fentanyl, or other sedative is often administered, to relax the patient. A local anesthetic is also usually administered, to numb the skin and tissue down to the ganglion nerve. A needle is inserted toward the stellate ganglion. […] The needle 20 is shown inserted adjacent to the stellate ganglion 10. In the illustrative block, a contrast solution is injected through needle 20 via syringe 22, and the needle position is confirmed by fluoroscopy or other means, as are known in the art.
The anesthetic 30 is then delivered next to stellate ganglion 10 by injection via needle 20. Illustratively, 5 cc 0.375% Marcaine® (bupivacaine) may be used. However, it is understood that other anesthetics, illustratively lidocaine, morphine or other opioids, clonidine, botox, or tetracine, or a combination of anesthetic and epinephrine, may be used and that the dosage range may vary depending on the particular anesthetic and other factors, as are known in the art. Needle 20 is removed, and the patient is optionally placed in the sitting position to facilitate the spread of anesthesia inferiorly to the stellate ganglion. Illustratively, longer acting anesthetics such as bupivacaine are used, but other anesthetics may be used, as are known in the art. The stellate ganglion block may also be performed by radiofrequency lesioning, as is known in the art.
Six women suffering from severe menopausal hot flashes each received a standard stellate ganglion block (0.375% Marcaine, 5 cc), as described above. Hot flashes were assessed by self-reporting pre and post stellate ganglion block.

For `CCCCN1CCCCC1C(=O)Nc1c(C)cccc1C` (stereo not drawn) [Marcaine, bupivacaine], the “sexual function with additional stellate ganglion blocks” value ([1]; additional blocks over the course of 3 years) was “maintain normal sexual function”, the “sexual function following stellate ganglion block” value ([1]; person, block in accordance with Example 1) was “return of normal sexual function” and the “effect on sexual dysfunction, block administered through C7” value ([1]; variation in treatment: administration of the stellate ganglion block through C7) was “ineffective”. For the same compound, the “success of initial stellate ganglion block, as evidenced by a positive Homer's syndrome and anhydrosis” value ([2]; 0.375% Marcaine, 5 cc, six women, initial block) was “successful in all six subjects”, the “duration of complete alleviation of hot flashes” value ([2]; initial stellate ganglion block, 0.375% Marcaine, 5 cc, six women) was 2-5 weeks and the “additional asymptomatic period of relief from hot flashes” value ([2]; second stellate ganglion block, after mild hot flashes returned) was 4-18 weeks.
